Source: article PMC3961306, “Comparison of the Cancer Gene Targeting and Biochemical Selectivities of All Targeted Kinase Inhibitors Approved for Clinical Use” (PLoS ONE, 2014)

Key:
Assay in all cases: Kinase profiling in a biochemical assay panel (mobility shift assays and ELISA), %-inhibition at 1 μM; selectivity entropy
[1] = biological target: panel of more than 300 wild-type and mutant kinases (313 kinase panel) (Homo sapiens, UniProt P23458)
[2] = biological target: panel of more than 300 wild-type and mutant kinases (313 kinase panel) (Homo sapiens, UniProt Q8N568)
[3] = biological target: panel of more than 300 wild-type and mutant kinases (313 kinase panel) (Homo sapiens, UniProt P68400)
[4] = biological target: T1, panel of more than 300 wild-type and mutant kinases (313 kinase panel) (Homo sapiens, UniProt O60285)
T1 sequence (O60285 1-661): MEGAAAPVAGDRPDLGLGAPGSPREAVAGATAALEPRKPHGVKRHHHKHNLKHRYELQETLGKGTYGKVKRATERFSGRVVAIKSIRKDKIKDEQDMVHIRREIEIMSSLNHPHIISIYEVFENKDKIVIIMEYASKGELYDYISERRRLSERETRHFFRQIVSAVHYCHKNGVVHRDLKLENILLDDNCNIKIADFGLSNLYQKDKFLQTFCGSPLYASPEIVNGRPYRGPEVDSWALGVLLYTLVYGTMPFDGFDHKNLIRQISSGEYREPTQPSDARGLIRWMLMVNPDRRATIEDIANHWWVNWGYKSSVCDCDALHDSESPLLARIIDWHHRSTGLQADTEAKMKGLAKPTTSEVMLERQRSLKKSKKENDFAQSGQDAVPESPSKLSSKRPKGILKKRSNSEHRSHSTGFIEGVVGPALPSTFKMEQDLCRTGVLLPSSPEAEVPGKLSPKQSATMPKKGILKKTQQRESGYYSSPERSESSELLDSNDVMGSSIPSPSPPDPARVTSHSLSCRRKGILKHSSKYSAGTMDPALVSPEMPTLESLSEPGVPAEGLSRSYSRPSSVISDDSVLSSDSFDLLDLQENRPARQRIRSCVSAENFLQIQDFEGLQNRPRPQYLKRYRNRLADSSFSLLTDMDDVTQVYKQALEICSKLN

[5] = biological target: panel of more than 300 wild-type and mutant kinases (313 kinase panel) (Homo sapiens, UniProt P53667)
[6] = biological target: panel of more than 300 wild-type and mutant kinases (313 kinase panel) (Homo sapiens, UniProt P07948)
[7] = biological target: panel of more than 300 wild-type and mutant kinases (313 kinase panel) (Homo sapiens, UniProt P41240); conditions: kinase CSK; compound at 1 μM
[8] = biological target: T2, panel of more than 300 wild-type and mutant kinases (313 kinase panel) (Homo sapiens, UniProt P33981)
T2 sequence (P33981 1-857): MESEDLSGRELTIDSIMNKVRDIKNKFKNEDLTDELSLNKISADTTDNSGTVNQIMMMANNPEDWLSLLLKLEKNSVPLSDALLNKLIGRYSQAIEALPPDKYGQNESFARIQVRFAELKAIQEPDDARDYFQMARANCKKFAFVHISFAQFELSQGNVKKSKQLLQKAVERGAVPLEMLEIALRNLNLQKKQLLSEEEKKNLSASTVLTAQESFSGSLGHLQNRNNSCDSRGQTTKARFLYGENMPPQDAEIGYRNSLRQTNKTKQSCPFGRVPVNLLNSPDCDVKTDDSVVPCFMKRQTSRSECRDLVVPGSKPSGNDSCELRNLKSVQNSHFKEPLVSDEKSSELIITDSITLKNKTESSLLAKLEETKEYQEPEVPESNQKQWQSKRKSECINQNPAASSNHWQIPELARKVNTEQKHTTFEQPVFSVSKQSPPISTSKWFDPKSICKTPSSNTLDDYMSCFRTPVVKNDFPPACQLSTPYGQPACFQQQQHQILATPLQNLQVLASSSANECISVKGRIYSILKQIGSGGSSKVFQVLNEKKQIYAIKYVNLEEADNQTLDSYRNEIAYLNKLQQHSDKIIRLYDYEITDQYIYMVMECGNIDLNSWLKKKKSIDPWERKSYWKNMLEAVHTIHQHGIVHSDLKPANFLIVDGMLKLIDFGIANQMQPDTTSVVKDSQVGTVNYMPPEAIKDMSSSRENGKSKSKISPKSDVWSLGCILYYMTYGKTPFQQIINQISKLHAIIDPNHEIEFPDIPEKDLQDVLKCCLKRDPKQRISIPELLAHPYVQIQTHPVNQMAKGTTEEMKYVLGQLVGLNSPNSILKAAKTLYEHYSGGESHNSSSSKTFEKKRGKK

[9] = biological target: T3, panel of more than 300 wild-type and mutant kinases (313 kinase panel) (Homo sapiens, UniProt P45985)
T3 sequence (P45985 1-399): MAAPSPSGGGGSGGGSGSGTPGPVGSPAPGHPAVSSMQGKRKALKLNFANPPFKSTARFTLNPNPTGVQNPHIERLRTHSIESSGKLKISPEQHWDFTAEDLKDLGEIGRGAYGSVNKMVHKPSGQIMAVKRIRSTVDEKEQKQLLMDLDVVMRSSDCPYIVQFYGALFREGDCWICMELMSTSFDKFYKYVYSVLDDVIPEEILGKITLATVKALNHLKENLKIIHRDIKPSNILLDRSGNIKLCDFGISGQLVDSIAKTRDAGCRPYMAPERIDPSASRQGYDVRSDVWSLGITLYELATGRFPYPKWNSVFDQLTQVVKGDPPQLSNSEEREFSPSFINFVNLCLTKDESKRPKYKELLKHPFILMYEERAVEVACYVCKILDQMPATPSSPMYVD

[10] = kinase DCAMKL2, compound at 1 μM
[11] = kinase MAP2K4, compound at 1 μM

Chain of panel of more than 300 wild-type and mutant kinases (313 kinase panel) (Homo sapiens, UniProt P41240) (P41240 whole entry, change not shown): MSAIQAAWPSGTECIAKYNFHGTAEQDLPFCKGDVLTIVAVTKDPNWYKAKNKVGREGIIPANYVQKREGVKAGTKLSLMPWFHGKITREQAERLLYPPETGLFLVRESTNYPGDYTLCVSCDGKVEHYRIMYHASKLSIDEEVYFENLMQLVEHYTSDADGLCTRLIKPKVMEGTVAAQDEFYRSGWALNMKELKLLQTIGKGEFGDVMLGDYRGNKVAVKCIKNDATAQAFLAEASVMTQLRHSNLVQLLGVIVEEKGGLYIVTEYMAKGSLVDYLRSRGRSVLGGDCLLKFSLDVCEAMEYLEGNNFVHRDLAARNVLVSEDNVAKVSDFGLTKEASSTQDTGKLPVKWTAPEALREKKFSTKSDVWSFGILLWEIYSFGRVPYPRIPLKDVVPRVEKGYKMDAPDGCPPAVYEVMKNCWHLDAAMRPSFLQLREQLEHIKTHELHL

Row | Compound | %-inhibition of JAK1 ([1]; kinase JAK1, compound at 1 μM) | %-inhibition of DCAMKL2 [2, 10] | %-inhibition, CK2α1/β ([3]; 1 µM) | %-inhibition of NuaK1 ([4]; 1 µM) | %-inhibition of LIMK1 ([5]; kinase LIMK1, compound at 1 μM) | %-inhibition of LYNa ([6]; kinase LYNa, compound at 1 μM) | %-inhibition of CSK [7] | %-inhibition of TTK ([8]; kinase TTK, compound at 1 μM) | %-inhibition of MAP2K4 [9, 11] | %-inhibition of NuaK1 ([4]; kinase NuaK1, 1 μM) | %-inhibition, CK2α1/β ([3]; kinase CK2α1/β, 1 μM compound) | %-inhibition of JAK1 ([1]; 1 µM) | %-inhibition of DCAMKL2 ([2]; 1 µM) | %-inhibition of LIMK1 ([5]; 1 µM) | %-inhibition of LYNa ([6]; 1 µM) | %-inhibition of TTK ([8]; 1 µM) | %-inhibition of MAP2K4 ([9]; 1 µM)
1 | C[C@@H](Oc1cc(-c2cnn(C3CCNCC3)c2)cnc1N)c1c(Cl)ccc(F)c1Cl [crizotinib] | 47% | 49% | -6.39% | 99% | 94% | 42% | 9% | -9% | -1.24% | – | – | – | – | – | – | – | –
2 | CC(C)(C)c1nc(-c2cccc(NS(=O)(=O)c3c(F)cccc3F)c2F)c(-c2ccnc(N)n2)s1 [dabrafenib] | 5.7% | 19% | – | – | 100% | – | 98% | -22% | -3% | 7% | – | – | – | – | – | – | –
3 | COc1cc2c(Nc3ccc(Br)cc3F)ncnc2cc1OCC1CCN(C)CC1 [vandetanib] | -3.31% | -5% | – | – | 12% | 93% | 68% | 3% | -2.77% | 16% | -7% | – | – | – | – | – | –
4 | O=S(=O)(c1cccc2cnccc12)N1CCCNCC1 [fasudil] | -1.43% | -2% | – | – | -7% | -1.61% | -3.28% | -11% | -5% | 44% | -4% | – | – | – | – | – | –
5 | C#Cc1cccc(Nc2ncnc3cc(OCCOC)c(OCCOC)cc23)c1 [erlotinib] | – | – | 0% | 12% | – | – | – | – | – | – | – | 8% | 5% | 0.0961% | 64% | 6.42% | -6%
6 | COc1cc2nccc(Oc3ccc(NC(=O)C4(C(=O)Nc5ccc(F)cc5)CC4)cc3)c2cc1OC [cabozantinib] | -1.59% | -2.62% | – | – | 51% | 100% | 60% | 2.75% | -0.379% | 7% | -2.76% | – | – | – | – | – | –
7 | Cc1ccc(C(=O)Nc2ccc(CN3CCN(C)CC3)c(C(F)(F)F)c2)cc1C#Cc1cnc2cccnn12 [ponatinib] | 99% | -3.72% | – | – | 68% | 100% | – | – | – | 5% | – | – | – | – | – | – | –
